ChEMBL document CHEMBL4265887 (Bioorg Med Chem Lett, 2018)
In brackets after ≈: the same amount, converted by molar mass. Activity calls are given as the source filed them. No cut-off for these calls is given here.

Experiments:
HCT-116 [1] = experiment: Cytotoxicity against human HCT116 cells assessed as reduction in cell viability after 48 hrs by MTT assay; type: functional, cell-based; conditions: HCT-116, 48 h
HCT-15 = experiment: Cytotoxicity against human HCT15 cells assessed as reduction in cell viability after 48 hrs by MTT assay; type: functional, cell-based; conditions: HCT-15, 48 h
Aurora kinase A = target: T1, Aurora kinase A (Homo sapiens, UniProt O14965); experiment: Inhibition of recombinant Aurora A (unknown origin) using TAMRA-PKAtide as substrate after 30 mins by fluorescence polarization assay
T1 sequence (O14965 whole entry): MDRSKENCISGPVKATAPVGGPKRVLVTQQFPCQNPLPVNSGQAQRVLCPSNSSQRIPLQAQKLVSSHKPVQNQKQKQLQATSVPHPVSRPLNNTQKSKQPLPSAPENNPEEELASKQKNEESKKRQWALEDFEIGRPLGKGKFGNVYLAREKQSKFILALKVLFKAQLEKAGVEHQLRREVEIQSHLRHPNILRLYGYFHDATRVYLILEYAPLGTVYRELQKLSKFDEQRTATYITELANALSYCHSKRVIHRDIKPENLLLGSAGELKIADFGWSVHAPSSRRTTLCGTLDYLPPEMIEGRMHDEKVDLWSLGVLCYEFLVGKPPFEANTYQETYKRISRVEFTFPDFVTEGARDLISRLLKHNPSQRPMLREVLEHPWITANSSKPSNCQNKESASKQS

Aurora kinase B [2] = target: T2, Aurora kinase B (Homo sapiens, UniProt Q96GD4); experiment: Inhibition of recombinant Aurora B (unknown origin) using TAMRA-PKAtide as substrate after 1 hr by fluorescence polarization assay
T2 sequence (Q96GD4 whole entry): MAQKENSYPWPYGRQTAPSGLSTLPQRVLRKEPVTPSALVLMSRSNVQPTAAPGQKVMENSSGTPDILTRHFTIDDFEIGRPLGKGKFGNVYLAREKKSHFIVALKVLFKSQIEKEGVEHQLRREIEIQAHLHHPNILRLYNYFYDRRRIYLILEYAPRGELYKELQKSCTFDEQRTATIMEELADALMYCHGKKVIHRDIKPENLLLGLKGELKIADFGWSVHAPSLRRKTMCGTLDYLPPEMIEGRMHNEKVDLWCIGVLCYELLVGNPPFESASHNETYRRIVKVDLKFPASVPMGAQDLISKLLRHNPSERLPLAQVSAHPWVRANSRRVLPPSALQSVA

HCT-116 [3] = experiment: Induction of apoptosis in human HCT116 cells at 100 nM after 72 hrs by Annexin V-FITC staining-based flow cytometric analysis; type: functional, cell-based
HCT-116 [4] = experiment: Inhibition of cytokinesis in human HCT116 cells at 100 nM after 24 hrs by propidium iodide/RNase staining-based flow cytometric analysis; type: functional, cell-based
HCT-116 [5] = experiment: Induction of apoptosis in human HCT116 cells at 1 uM after 72 hrs by Annexin V-FITC/propidium iodide staining-based flow cytometric analysis; type: functional, cell-based
HCT-116 [6] = experiment: Inhibition of cytokinesis in human HCT116 cells at 1 uM after 24 hrs by propidium iodide/RNase staining-based flow cytometric analysis; type: functional, cell-based
Aurora kinase B [7] = target: T2, Aurora kinase B; experiment: Inhibition of Aurora B phosphorylation at Thr232 residue in human HCT116 cells over 100 nM after 3 hrs by Western blot method; type: cell-based
[8] = Solubility of the compound in phosphate buffer of pH 7.4 after 24 hrs by RP-HPLC analysis; type: physicochemical; conditions: phosphate buffer, pH 7.4
[9] = Solubility of the compound in phosphate buffer of pH 2 after 24 hrs by RP-HPLC analysis; type: physicochemical
[10] = target: Tyrosine-protein kinase receptor UFO (Homo sapiens) (UniProt P30530); experiment: Inhibition of AXL (unknown origin) at 1 uM
[11] = target: Vascular endothelial growth factor receptor 2 (Homo sapiens) (UniProt P35968); experiment: Inhibition of VEGFR2 (unknown origin) at 1 uM
[12] = target: Proto-oncogene tyrosine-protein kinase Src (Homo sapiens) (UniProt P12931); experiment: Inhibition of c-Src (unknown origin) at 1 uM
[13] = target: Tyrosine-protein kinase ABL1 (Homo sapiens) (UniProt P00519); experiment: Inhibition of ABL (unknown origin) at 1 uM
[14] = target: Tyrosine-protein kinase JAK3 (Homo sapiens) (UniProt P52333); experiment: Inhibition of JAK3 (unknown origin) at 1 uM
Sequence of Tyrosine-protein kinase JAK3 (Homo sapiens) (P52333 whole entry): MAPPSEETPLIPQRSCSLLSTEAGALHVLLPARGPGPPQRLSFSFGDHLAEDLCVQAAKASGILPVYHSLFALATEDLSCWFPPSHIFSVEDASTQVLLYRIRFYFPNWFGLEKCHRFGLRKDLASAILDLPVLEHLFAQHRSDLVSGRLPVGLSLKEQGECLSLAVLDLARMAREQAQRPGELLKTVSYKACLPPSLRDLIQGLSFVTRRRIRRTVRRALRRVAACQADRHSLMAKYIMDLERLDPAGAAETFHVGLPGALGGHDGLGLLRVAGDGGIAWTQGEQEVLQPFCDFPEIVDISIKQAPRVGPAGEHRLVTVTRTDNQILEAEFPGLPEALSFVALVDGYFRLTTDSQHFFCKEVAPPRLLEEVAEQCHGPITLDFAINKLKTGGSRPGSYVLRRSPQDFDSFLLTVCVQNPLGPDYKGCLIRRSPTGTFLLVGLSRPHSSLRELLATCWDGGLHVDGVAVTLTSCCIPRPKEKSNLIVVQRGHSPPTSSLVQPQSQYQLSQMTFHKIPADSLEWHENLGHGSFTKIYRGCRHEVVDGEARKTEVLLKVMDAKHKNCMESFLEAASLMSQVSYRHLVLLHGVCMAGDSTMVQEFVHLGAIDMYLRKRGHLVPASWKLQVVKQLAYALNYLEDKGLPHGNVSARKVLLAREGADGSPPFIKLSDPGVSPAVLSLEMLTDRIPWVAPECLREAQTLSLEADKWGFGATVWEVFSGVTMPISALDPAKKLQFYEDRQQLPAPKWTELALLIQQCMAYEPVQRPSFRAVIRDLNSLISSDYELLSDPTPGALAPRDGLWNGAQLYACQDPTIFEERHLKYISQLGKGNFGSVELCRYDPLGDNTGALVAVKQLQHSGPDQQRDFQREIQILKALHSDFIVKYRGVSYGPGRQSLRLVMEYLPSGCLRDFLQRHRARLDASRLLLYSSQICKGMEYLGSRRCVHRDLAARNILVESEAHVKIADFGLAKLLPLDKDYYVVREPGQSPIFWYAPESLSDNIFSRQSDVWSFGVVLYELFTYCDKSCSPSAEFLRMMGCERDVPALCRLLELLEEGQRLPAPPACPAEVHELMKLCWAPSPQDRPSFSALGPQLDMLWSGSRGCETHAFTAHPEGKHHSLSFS

[15] = target: Proto-oncogene tyrosine-protein kinase receptor Ret (Homo sapiens) (UniProt P07949); experiment: Inhibition of RET (unknown origin) at 1 uM
[16] = target: Serine/threonine-protein kinase PAK 4 (Homo sapiens) (UniProt O96013); experiment: Inhibition of PAK4 (unknown origin) at 1 uM
[17] = target: High affinity nerve growth factor receptor (Homo sapiens) (UniProt P04629); experiment: Inhibition of TrkA (unknown origin) at 1 uM
[18] = target: Platelet-derived growth factor receptor beta (Homo sapiens) (UniProt P09619); experiment: Inhibition of PDGFRbeta (unknown origin) at 1 uM
[19] = target: Epithelial discoidin domain-containing receptor 1 (Homo sapiens) (UniProt Q08345); experiment: Inhibition of DDR1 (unknown origin) at 1 uM
[20] = target: Fibroblast growth factor receptor 3 (Homo sapiens) (UniProt P22607); experiment: Inhibition of FGFR3 (unknown origin) at 1 uM
[21] = target: Mast/stem cell growth factor receptor Kit (Homo sapiens) (UniProt P10721); experiment: Inhibition of c-KIT (unknown origin) at 1 uM
[22] = target: Serine/threonine-protein kinase Chk1 (Homo sapiens) (UniProt O14757); experiment: Inhibition of CHK1 (unknown origin) at 1 uM
[23] = target: Receptor-type tyrosine-protein kinase FLT3 (Homo sapiens) (UniProt P36888); experiment: Inhibition of FLT3 (unknown origin) at 1 uM
[24] = target: Serine/threonine-protein kinase B-raf (Homo sapiens) (UniProt P15056); experiment: Inhibition of BRAF (unknown origin) at 1 uM
[25] = target: Hepatocyte growth factor receptor (Homo sapiens) (UniProt P08581); experiment: Inhibition of c-MET (unknown origin) at 1 uM
Sequence of Hepatocyte growth factor receptor (Homo sapiens) (P08581 whole entry): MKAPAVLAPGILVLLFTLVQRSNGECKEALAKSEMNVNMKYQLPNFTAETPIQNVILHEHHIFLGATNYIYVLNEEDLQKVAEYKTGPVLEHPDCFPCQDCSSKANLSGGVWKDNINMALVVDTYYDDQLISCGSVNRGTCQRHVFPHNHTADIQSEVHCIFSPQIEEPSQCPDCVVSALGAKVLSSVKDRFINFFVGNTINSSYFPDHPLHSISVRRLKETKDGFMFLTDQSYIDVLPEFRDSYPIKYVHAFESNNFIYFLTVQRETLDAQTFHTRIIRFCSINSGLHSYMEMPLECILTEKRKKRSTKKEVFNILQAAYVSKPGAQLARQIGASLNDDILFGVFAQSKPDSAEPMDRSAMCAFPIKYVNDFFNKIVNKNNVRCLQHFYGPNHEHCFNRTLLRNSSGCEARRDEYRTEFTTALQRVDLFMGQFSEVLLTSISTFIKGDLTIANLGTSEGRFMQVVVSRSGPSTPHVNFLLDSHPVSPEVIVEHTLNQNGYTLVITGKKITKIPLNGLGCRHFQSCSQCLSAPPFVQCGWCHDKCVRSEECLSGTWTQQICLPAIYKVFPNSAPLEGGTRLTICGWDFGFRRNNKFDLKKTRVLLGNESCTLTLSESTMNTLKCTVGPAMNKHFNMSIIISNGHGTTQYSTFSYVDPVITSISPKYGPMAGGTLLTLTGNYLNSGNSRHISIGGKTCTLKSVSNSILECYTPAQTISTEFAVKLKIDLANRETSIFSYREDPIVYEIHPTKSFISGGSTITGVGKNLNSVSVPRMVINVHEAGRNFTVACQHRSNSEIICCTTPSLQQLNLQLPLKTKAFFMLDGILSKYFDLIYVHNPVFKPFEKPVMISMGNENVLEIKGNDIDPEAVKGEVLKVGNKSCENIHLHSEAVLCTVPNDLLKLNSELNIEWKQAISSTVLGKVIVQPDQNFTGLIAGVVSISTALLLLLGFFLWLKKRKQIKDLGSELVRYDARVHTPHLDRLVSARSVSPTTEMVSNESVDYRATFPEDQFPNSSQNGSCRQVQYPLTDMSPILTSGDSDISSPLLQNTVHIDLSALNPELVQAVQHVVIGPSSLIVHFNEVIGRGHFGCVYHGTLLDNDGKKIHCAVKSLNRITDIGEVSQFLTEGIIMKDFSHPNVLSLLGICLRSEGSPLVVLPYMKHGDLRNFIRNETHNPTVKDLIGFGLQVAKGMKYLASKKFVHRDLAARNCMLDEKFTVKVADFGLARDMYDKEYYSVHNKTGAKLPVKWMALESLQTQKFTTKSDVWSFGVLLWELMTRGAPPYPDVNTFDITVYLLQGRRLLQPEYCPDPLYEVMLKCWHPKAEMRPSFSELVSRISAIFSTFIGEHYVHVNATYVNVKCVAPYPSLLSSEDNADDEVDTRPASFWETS

[26] = target: Cyclin-dependent kinase 4/cyclin D1 (Homo sapiens) (UniProt P11802+P24385); experiment: Inhibition of CDK4/Cyclin D1 (unknown origin) at 1 uM; type: protein-complex assay
[27] = target: Angiopoietin-1 receptor (Homo sapiens) (UniProt Q02763); experiment: Inhibition of TIE2 (unknown origin) at 1 uM
[28] = target: Serine/threonine-protein kinase pim-1 (Homo sapiens) (UniProt P11309); experiment: Inhibition of PIM1 (unknown origin) at 1 uM
Sequence of Serine/threonine-protein kinase pim-1 (Homo sapiens) (P11309 whole entry, looked up): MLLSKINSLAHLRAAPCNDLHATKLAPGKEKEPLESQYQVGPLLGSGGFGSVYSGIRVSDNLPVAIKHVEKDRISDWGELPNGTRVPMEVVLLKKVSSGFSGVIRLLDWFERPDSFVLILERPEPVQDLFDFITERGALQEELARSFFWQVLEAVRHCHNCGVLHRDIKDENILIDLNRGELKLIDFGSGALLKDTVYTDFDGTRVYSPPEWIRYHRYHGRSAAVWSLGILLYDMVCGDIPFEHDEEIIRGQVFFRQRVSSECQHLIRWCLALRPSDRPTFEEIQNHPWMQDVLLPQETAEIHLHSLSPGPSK

[29] = target: CDK2/Cyclin A2 (Homo sapiens) (UniProt P24941+P20248); experiment: Inhibition of CDK2/cyclin A (unknown origin) at 1 uM; type: protein-complex assay
[30] = target: Insulin receptor (Homo sapiens) (UniProt P06213); experiment: Inhibition of INSR (unknown origin) at 1 uM
Sequence of Insulin receptor (Homo sapiens) (P06213 28-758 limits assumed): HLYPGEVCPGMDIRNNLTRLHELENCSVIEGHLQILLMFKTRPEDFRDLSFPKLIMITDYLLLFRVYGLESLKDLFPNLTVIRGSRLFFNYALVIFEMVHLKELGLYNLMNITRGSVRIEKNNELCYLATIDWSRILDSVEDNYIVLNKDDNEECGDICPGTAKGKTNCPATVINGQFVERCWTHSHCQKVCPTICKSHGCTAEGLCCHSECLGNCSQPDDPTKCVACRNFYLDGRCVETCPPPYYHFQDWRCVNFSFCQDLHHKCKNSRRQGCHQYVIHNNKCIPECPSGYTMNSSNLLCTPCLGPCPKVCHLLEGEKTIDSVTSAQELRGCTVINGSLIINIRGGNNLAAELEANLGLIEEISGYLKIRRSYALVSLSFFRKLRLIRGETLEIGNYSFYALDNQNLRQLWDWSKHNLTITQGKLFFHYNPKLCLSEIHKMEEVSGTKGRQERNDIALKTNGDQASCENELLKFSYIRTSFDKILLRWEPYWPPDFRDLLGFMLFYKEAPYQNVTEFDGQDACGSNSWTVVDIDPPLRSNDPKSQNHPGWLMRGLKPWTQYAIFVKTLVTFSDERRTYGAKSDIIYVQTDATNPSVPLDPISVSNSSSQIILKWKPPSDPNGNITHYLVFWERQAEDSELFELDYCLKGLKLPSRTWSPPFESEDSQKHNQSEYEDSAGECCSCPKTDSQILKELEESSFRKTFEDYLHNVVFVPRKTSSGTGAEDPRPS
Sequence of Insulin receptor (Homo sapiens) (P06213 763-1382 limits assumed): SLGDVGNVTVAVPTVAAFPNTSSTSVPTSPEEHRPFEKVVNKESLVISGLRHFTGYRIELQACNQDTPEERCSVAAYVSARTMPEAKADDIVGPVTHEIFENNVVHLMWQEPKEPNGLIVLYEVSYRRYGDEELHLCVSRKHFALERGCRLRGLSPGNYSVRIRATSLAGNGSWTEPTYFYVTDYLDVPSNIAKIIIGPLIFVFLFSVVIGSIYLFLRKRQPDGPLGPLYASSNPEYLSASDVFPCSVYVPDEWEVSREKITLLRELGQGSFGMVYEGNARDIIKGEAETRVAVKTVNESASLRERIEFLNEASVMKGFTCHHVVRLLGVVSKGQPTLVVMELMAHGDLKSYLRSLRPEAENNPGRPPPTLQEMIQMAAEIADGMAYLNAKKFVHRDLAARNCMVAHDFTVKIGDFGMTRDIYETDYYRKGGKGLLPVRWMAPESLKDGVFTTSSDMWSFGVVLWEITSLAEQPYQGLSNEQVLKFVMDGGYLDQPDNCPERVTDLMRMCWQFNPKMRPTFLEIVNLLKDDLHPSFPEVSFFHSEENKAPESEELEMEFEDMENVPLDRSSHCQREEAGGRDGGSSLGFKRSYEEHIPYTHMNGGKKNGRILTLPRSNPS

[31] = target: Serine/threonine-protein kinase PAK 1 (Homo sapiens) (UniProt Q13153); experiment: Inhibition of PAK1 (unknown origin) at 1 uM
[32] = target: Protein kinase C alpha type (Homo sapiens) (UniProt P17252); experiment: Inhibition of PKCalpha (unknown origin) at 1 uM
[33] = target: Tyrosine-protein kinase CSK (Homo sapiens) (UniProt P41240); experiment: Inhibition of CSK (unknown origin) at 1 uM
[34] = target: Tyrosine-protein kinase SYK (Homo sapiens) (UniProt P43405); experiment: Inhibition of SYK (unknown origin) at 1 uM
[35] = target: Inhibitor of nuclear factor kappa-B kinase subunit beta (Homo sapiens) (UniProt O14920); experiment: Inhibition of IKKbeta (unknown origin) at 1 uM
[36] = target: Interleukin-1 receptor-associated kinase 4 (Homo sapiens) (UniProt Q9NWZ3); experiment: Inhibition of IRAK4 (unknown origin) at 1 uM
[37] = target: Death-associated protein kinase 3 (Homo sapiens) (UniProt O43293); experiment: Inhibition of ZIPK (unknown origin) at 1 uM
[38] = target: Mitogen-activated protein kinase 3 (Homo sapiens) (UniProt P27361); experiment: Inhibition of ERK1 (unknown origin) at 1 uM
Sequence of Mitogen-activated protein kinase 3 (Homo sapiens) (P27361 whole entry): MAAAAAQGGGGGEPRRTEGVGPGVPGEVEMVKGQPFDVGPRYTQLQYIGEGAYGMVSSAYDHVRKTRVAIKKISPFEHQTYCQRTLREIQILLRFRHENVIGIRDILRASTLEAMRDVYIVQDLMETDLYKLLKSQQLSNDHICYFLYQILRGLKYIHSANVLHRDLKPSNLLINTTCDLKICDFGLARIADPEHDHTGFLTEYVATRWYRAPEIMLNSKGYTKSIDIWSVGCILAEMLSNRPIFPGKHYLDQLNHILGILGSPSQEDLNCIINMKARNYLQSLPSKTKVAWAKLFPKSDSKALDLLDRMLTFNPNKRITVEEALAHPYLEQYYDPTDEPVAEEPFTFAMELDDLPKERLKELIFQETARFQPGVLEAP

[39] = target: Rho-associated protein kinase 2 (Homo sapiens) (UniProt O75116); experiment: Inhibition of ROCK2 (unknown origin) at 1 uM
[40] = target: Serine/threonine-protein kinase mTOR (Homo sapiens) (UniProt P42345); experiment: Inhibition of mTOR (unknown origin) at 1 uM

Molecule `CNC(=O)Nc1sc2c(C(C)C)cc(NS(=O)(=O)N(C)C)cc2c1C(N)=O` has an IC50 (HCT-116 [1]) of 300 nM, an IC50 (HCT-15) of 1600 nM and an IC50 (Aurora kinase A) of 9 nM. For the same molecule, the IC50 (Aurora kinase B [2]) was 23 nM, the Activity (HCT-116 [3]) was “inactive” and the “Cytokinesis inhibition (active/inactive call)” value (HCT-116 [4]) was “Active”. For the same molecule, the Activity (HCT-116 [5]) was “inactive”, the “Cytokinesis inhibition (active/inactive call)” value (HCT-116 [6]) was “Active” and the inhibition (Aurora kinase B [7]) was “Active”. For the same molecule, the solubility at 24 h [8] was 13.1 µM (≈ 5.42 µg/mL), the solubility at 24 h [9] was 8 µM (≈ 3.31 µg/mL) and the inhibition [10] was 37.2%. The inhibition [11] was 68.2%, the inhibition [12] was 94.4% and the inhibition [13] was 88.8%. For the same molecule, the inhibition [14] was 54.6%, the inhibition [15] was 97.2% and the inhibition [16] was 11.2%. The inhibition [17] was 46.9%, the inhibition [18] was 61.3% and the inhibition [19] was 75.9%. It also gave an inhibition [20] of 14.4%, an inhibition [21] of 28.9% and an inhibition [22] of 16.4%. It also gave an inhibition [23] of 46.6%, an inhibition [24] of -0.3% and an inhibition [25] of 2.76%. It also gave an inhibition [26] of 27%, an inhibition [27] of 0.75% and an inhibition [28] of 41.6%. The inhibition [29] was 22.8%, the inhibition [30] was 3% and the inhibition [31] was 5.28%. It also gave an inhibition [32] of 17.9%, an inhibition [33] of 19.5% and an inhibition [34] of 51.1%. The inhibition [35] was 30.7%, the inhibition [36] was 8.14% and the inhibition [37] was 39.6%. It also gave an inhibition [38] of 17.6%, an inhibition [39] of 15.7% and an inhibition [40] of 3.66%.
